Experimental data published in US20230201221A1, “USE OF TERPENOIDS IN THE TREATMENT OR PREVENTION OF FIBROTIC DISEASES” (ARJIL BIOTECH HOLDING COMPANY LIMITED, priority 2020, published 2023).

Experiments:
Assay type in all cases: in vivo
[1] = tested on: TNF-α, IL-1β, IL-6 and TGF-β; test: Cisplatin-induced renal injury in mice: serum pro-inflammatory cytokines by ELISA; conditions: extract at 1000 mg/kg; after cisplatin challenge
Procedure: TNF-α, IL-6, and IL-1β cytokines in serum The serum concentration of the pro-inflammatory cytokines (i.e. tumor necrosis factor-α (TNF-α), interleukin-6 (IL-6), and IL-1β) in serum are assessed with relevant enzyme-linked immunosorbent assay (ELISA) kits (Biosource International Inc., Sunnyvale, Calif., USA), based on the manufacturer's instructions.
Seven-to-eight-week-old male C57BL/6 mice are obtained from the BioLASCO Taiwan Co., Ltd. (Taipei, Taiwan). The animals are housed in Plexiglas cages at a constant temperature of 22±1° C. and a relative humidity of 55±5% on a 12 h dark-light cycle for at least 2 weeks before the experiment. Animals are provided food and water ad libitum. All experimental procedures are performed according to the guidelines of the Institutional Animal Ethics Committee, and the protocol is approved by the Committee for the Purpose of Control and Supervision of Experiments on Animals.
Renal fibrosis is induced via multiple injections of low-dose cisplatin. Intraperitoneal injections of cisplatin (5 mg/kg/injection; P4394, Sigma-Aldrich, St Louis, Mo.) are performed at 0, 1, and 3 weeks, for a total of 3 injections. Mice are sacrificed at 6 weeks after the first dose of cisplatin (n=6). […]

SD rats = test: CCl4-induced chronic liver fibrosis in rat
Procedure: Blood samples are collected at week 0, 2, 4, 6, and 8. The animals are sacrificed at the end of the 8-week for histopathological examinations. FIGS. 7A, 7B, 7C depict delta weight, liver weight, and liver/body-weight ratio, respectively.
The level of clinical biochemistry such as aspartate aminotransferase (AST), alanine aminotransferase (ALT), is evaluated to determine the enzymatic activities of the livers of the control groups and the experimental groups (shown in FIGS. 8A-8C).

ICR mice = test: Bleomycin-induced pulmonary fibrosis in mice: body weight, lung weight, lung index
Procedure: Specific pathogen-free ICR mice (males) (body weights 18-22 g) were purchased from the BioLASCO Taiwan Co., Ltd. (Taipei, Taiwan). The animals were housed in Plexiglas cages at a constant temperature of 22±1° C. and a relative humidity of 55±5% on a 12 h dark-light cycle for at least 2 weeks before the experiment. Animals were provided food and water ad libitum. All experimental procedures were performed according to the guidelines of the Institutional Animal Ethics Committee, and the protocol was approved by the Committee for the Purpose of Control and Supervision of Experiments on Animals.
(§1) Mice were divided into fifth groups with 5 animals per group according to body weight: control group, BLM group, BLM+DEX group (7.5 mg/kg), BLM+ACH dosage group (50 mg/kg), and BLM+ACM dosage group (25 mg/kg), BLM+ACH dosage group (50 mg/kg), and BLM+ACM dosage group (25 mg/kg) BLM+AH dosage group (50 mg/kg), and BLM+AM dosage group (25 mg/kg) BLM+BH dosage group (50 mg/kg), and BLM+BM dosage group (25 mg/kg) BLM+CH dosage group (50 mg/kg), and BLM+CM dosage group (25 mg/kg) BLM+DH dosage group (50 mg/kg), and BLM+DM dosage group (25 mg/kg) BLM+EH dosage group (50 mg/kg), and BLM+EM dosage group (25 mg/kg) BLM. Pulmonary fibrosis (PF) was established in mice via a single intratracheal administration of BLM at 7.5 mg/kg mg/kg body weight. Different doses of samples were intragastrically administered daily for 21 days after BLM injury, and DEX was used as the positive control. Control and model groups received an equal volume of vehicle (0.9% NaCl) using the same schedule and route of administration.
Mouse body weights were recorded daily. Mice were sacrificed on the 21th day using excess chloral hydrate hydrochloride anesthesia. Blood was obtained for ELISA analyses, and whole lungs were removed and weighed. The right lungs were fixed in 10% formalin, dehydrated, and embedded in paraffin. The left lungs were used to determine hydroxyproline. The pulmonary coefficient was calculated using the following equation: lung weight/body weight×100%
1. Group I: control; 2. Group II: mice received single intraperitoneal injection of BLM (7.5 mg/kg BW) 3. Group III: single dose (ACH, 0.5 g/kg) 4. Group IV: Single dose (ACM, 1.0 g/kg) 5. […] Group VII: purified AR101-DS2 (50 mg/kg) 8. Group VIII: purified AR101-DS2 (25 mg/kg) 7. Group VII: purified AR101-DS4 (50 mg/kg) 8. Group VIII: purified AR101-DS4 (25 mg/kg) 7. […] Group VII: purified ARH013-RA1 (50 mg/kg) 8. Group VIII: purified ARH013-RA1 (25 mg/kg)

MPO = test: Bleomycin-induced pulmonary fibrosis in mice: lung myeloperoxidase (MPO) assay; conditions: compared with BLM group, p<0.001
Procedure: as §1
The pulmonary MPO activity was a reliable index for estimating the infiltration of inflammatory cells in lungs. The lung tissues were homogenized and the MPO levels were detected with the kits according to manufacturer's instruction.

[2] = 25 mg/kg intragastric daily for 21 days after BLM
[3] = 50 mg/kg intragastric daily for 21 days after BLM

C=C1C(=O)O[C@H]2/C=C(\C)CC3C=C(CC/C=C(\C)CC[C@H]12)C(=O)O3 (stereo partly drawn) [AR100-DS1, Ovatodiolide]
NO, TNF-α, IL-1β, and IL-6 production in serum [1]: improved NO, TNF-α, IL-1β, and IL-6 production
serum AST and ALT level (SD rats; 50 mg/kg, W6 and W8, compared with the vehicle group): less AST and ALT increases
liver appearance (SD rats; 50 mg/kg, after 8 weeks of CCl4 induction): smooth surface without atrophy and sclerosis
overall effect on CCl4-induced liver injury (SD rats; 8 weeks of CCl4 induction): potential to partially repair CCl4-induced liver injury
Final body mass (ICR mice; [2]): 37.33 ± 0.25 g
Pulmonary mass (ICR mice; [2]): 0.52 ± 0.02 g
Final body mass (ICR mice; [3]): 39.12 ± 0.30 g
Pulmonary mass (ICR mice; [3]): 0.39 ± 0.01 g
lung MPO activity (MPO): evidently suppressed the MPO activities
